The target of experiment [1] is T1, SARS-CoV-2 PLpro (nsp3 1564–1878) (Severe acute respiratory syndrome coronavirus 2, UniProt P0DTD1). The experiment can be described thus: biochemical. Also noted: FRET-quenched peptide (Pro3) cleavage by PLpro, 10 min pre-incubation, slope over 20 min, normalised to no-compound control. As to conditions: high concentration screen, read-out: % of control remaining.

Experiment [2] deals with T1, SARS-CoV-2 PLpro (nsp3 1564–1878). Briefly: biochemical. Also noted: FRET-quenched peptide (Pro3) cleavage by PLpro, 10 min pre-incubation, slope over 20 min, normalised to no-compound control. As to conditions: low concentration screen, read-out: % of control remaining.

The values below come from paper PMC8286840, “Identifying SARS-CoV-2 antiviral compounds by screening for small molecule inhibitors of Nsp3 papain-like protease” (Biochemical Journal, 2021).

Counter-ions that a name gives are not always drawn. Like-named read-outs stand apart in the source and are kept apart here.

As to `CC(C)[C@H](CO)Nc1nc(Nc2cccc(Cl)c2)c2ncn(C(C)C)c2n1` [Purvalanol A], the remaining activity at 3.75 µM in experiment [1] (Well no.=1050) is 86.5%; in experiment [1] (Well no.=2606), 92%. The values for the remaining activity at 1.25 µM in experiment [2] (Well no.=1050) and in experiment [2] (Well no.=2606) were 86.7% and 91.1%, respectively.

With `CC(C)[C@H](CO)Nc1nc(Nc2ccc(C(=O)O)c(Cl)c2)c2ncn(C(C)C)c2n1` [Purvalanol B - (2R)-2-[[6-[(3-Chloro-4-carboxyphenyl)amino]-9-(1-methylethyl)-9H-purin-2-yl]amino]-3-methyl-1-butanol], the remaining activity at 3.75 µM in experiment [1] (Well no.=2436) was 105%. For the same molecule, the remaining activity at 1.25 µM in experiment [2] (Well no.=2436) amounted to 103%.

`CC(C)[C@H](CO)Nc1nc(Nc2ccc(C(=O)O)c(Cl)c2)c2ncn(C(C)C)c2n1` [Purvalanol B]: the remaining activity at 3.75 µM in experiment [1] (Well no.=2843) was found to be 94.9%. In addition, the remaining activity at 1.25 µM in experiment [2] (Well no.=2843) is 96.5%.

With `NCCCCN` [Putrescine dihydrochloride], the remaining activity at 3.75 µM in experiment [1] (Well no.=1205) was 102%. Besides, the remaining activity at 1.25 µM in experiment [2] (Well no.=1205) was 103%.

On to `O=S(=O)(NCc1ccccn1)c1ccc(Br)c2ccccc12` [Pyrabactin], for which the remaining activity at 3.75 µM in experiment [1] (Well no.=5918) was 95.8%. Further, the remaining activity at 1.25 µM in experiment [2] (Well no.=5918) is 96.4%.

For the molecule `NC(=O)c1cnccn1` [Pyrazinecarboxamide], the remaining activity at 3.75 µM in experiment [1] (Well no.=1395) stood at 99.2%. Also, in experiment [2] (Well no.=1395), the remaining activity at 1.25 µM came out at 101%.

As to `CN(C)C(=O)Oc1ccc[n+](C)c1` [Pyridostigmine bromide], the remaining activity at 3.75 µM in experiment [1] (Well no.=1499) came out at 91.4%. The remaining activity at 1.25 µM in experiment [2] (Well no.=1499) is 89.1%.

As for `Cc1ncc(COP(=O)(O)O)c(C=O)c1O` [Pyridoxal phosphate], in experiment [1] (Well no.=6389), the remaining activity at 3.75 µM amounted to 101%. Also, the remaining activity at 1.25 µM in experiment [2] (Well no.=6389) is 103%.

On to `Cc1ncc(CO)c(CO)c1O` [Pyridoxine HCl], for which the remaining activity at 3.75 µM in experiment [1] (Well no.=4935) stood at 96.8%. The remaining activity at 1.25 µM in experiment [2] (Well no.=4935) was 97.7%.

In the case of `COc1ccc(CN(CCN(C)C)c2ccccn2)cc1` [Pyrilamine maleate], the remaining activity at 3.75 µM in experiment [1] (Well no.=814) turned out to be 104%. In addition, in experiment [2] (Well no.=814), the remaining activity at 1.25 µM is 101%.

With `CCc1nc(N)nc(N)c1-c1ccc(Cl)cc1` [Pyrimethamine], in experiment [1] (Well no.=4708), the remaining activity at 3.75 µM worked out at 97.2%. The remaining activity at 1.25 µM in experiment [2] (Well no.=4708) amounted to 102%.

For `Oc1ccccc1O` [Pyrocatechol], the remaining activity at 3.75 µM in experiment [1] (Well no.=190) is 98%. In addition, the remaining activity at 1.25 µM in experiment [2] (Well no.=190) turned out to be 101%.

For `Oc1cccc(O)c1O` [Pyrogallol], the remaining activity at 3.75 µM in experiment [1] (Well no.=6975) came to 105%. Moreover, in experiment [2] (Well no.=6975), the remaining activity at 1.25 µM was 104%.

`O=C(O)c1ccc[nH]1` [Pyrrole-2-carboxylic acid]: the remaining activity at 3.75 µM in experiment [1] (Well no.=6405) was 92.4%. Further, the remaining activity at 1.25 µM in experiment [2] (Well no.=6405) turned out to be 93.2%.

For the molecule `CC(=O)C(=O)O` [Pyruvic acid], the remaining activity at 3.75 µM in experiment [1] (Well no.=6683) is 94.5%. In addition, the remaining activity at 1.25 µM in experiment [2] (Well no.=6683) worked out at 92.9%.

Turning to `COC1=C[C@@H](C)[C@@H]2C[C@H]3OC(=O)C[C@H]4C(C)=C(OC)C(=O)[C@H]([C@@]2(C)C1=O)[C@@]34C` [Quassin], the remaining activity at 3.75 µM in experiment [1] (Well no.=3775) was 101%. Besides, the remaining activity at 1.25 µM in experiment [2] (Well no.=3775) was found to be 94.2%.

Regarding `C[C@@H]1C(=O)NC2=Nc3cccc(Cl)c3CN21` [Quazinone], in experiment [1] (Well no.=1221), the remaining activity at 3.75 µM was determined as 95.5%. Also, in experiment [2] (Well no.=1221), the remaining activity at 1.25 µM was found to be 96.6%.

Consider `O=c1c(O)c(-c2ccc(O)c(O)c2)oc2cc(O)c(O)c(O)c12` [Quercetagetin], for which the remaining activity at 3.75 µM in experiment [1] (Well no.=2589) was 92.1%. In experiment [2] (Well no.=2589), the remaining activity at 1.25 µM turned out to be 89%.

`O=c1c(O)c(-c2ccc(O)c(O)c2)oc2cc(O)cc(O)c12` [Quercetin dihydrate]: the remaining activity at 3.75 µM in experiment [1] (Well no.=1315) stood at 104%. The remaining activity at 1.25 µM in experiment [2] (Well no.=1315) amounted to 102%.

Consider `O=c1c(O)c(-c2ccc(O)c(O)c2)oc2cc(O)cc(O)c12` [Quercetin], for which the remaining activity at 3.75 µM in experiment [1] (Well no.=5716) was determined as 96%. In addition, the remaining activity at 1.25 µM in experiment [2] (Well no.=5716) is 91.5%.

Regarding `C[C@@H]1O[C@@H](Oc2c(-c3ccc(O)c(O)c3)oc3cc(O)cc(O)c3c2=O)[C@H](O)[C@H](O)[C@H]1O` [Quercitrin], the remaining activity at 3.75 µM in experiment [1] (Well no.=3112) worked out at 96.5%. Also, the remaining activity at 1.25 µM in experiment [2] (Well no.=3112) amounted to 96.4%.

In the case of `OCCOCCN1CCN(C2=Nc3ccccc3Sc3ccccc32)CC1` [Quetiapine (fumarate)], in experiment [1] (Well no.=6237), the remaining activity at 3.75 µM was 94.3%. Also, the remaining activity at 1.25 µM in experiment [2] (Well no.=6237) turned out to be 98.2%.

In the case of `OCCOCCN1CCN(C2=Nc3ccccc3Sc3ccccc32)CC1` [Quetiapine Fumarate], the remaining activity at 3.75 µM in experiment [1] (Well no.=1684) was 100%. In experiment [2] (Well no.=1684), the remaining activity at 1.25 µM worked out at 99.2%.

Turning to `OCCOCCN1CCN(C2=Nc3ccccc3Sc3ccccc32)CC1` [Quetiapine], the remaining activity at 3.75 µM in experiment [1] (Well no.=6616) stood at 98.6%. The remaining activity at 1.25 µM in experiment [2] (Well no.=6616) amounted to 98.1%.

On to `CCN(CC)CCCC(C)Nc1c2ccc(Cl)cc2nc2ccc(OC)cc12` (stereo not shown) [Quinacrine dihydrochloride], for which, in experiment [1] (Well no.=1173), the remaining activity at 3.75 µM amounted to 98.3%. Besides, the remaining activity at 1.25 µM in experiment [2] (Well no.=1173) stood at 96.3%.

Take `CCN(CC)CCCC(C)Nc1c2ccc(Cl)cc2nc2ccc(OC)cc12` (stereo not shown) [Quinacrine]: the remaining activity at 3.75 µM in experiment [1] (Well no.=2187) was 97.2%. In experiment [2] (Well no.=2187), the remaining activity at 1.25 µM was 96.6%.

For `CCOC(=O)[C@H](CCc1ccccc1)N[C@@H](C)C(=O)N1Cc2ccccc2C[C@H]1C(=O)O` [Quinapril (hydrochloride)], the remaining activity at 3.75 µM in experiment [1] (Well no.=7828) came out at 95%. The remaining activity at 1.25 µM in experiment [2] (Well no.=7828) came to 96.3%.

On to `CCOC(=O)[C@H](CCc1ccccc1)N[C@@H](C)C(=O)N1Cc2ccccc2C[C@H]1C(=O)O` [Quinapril], for which, in experiment [1] (Well no.=2189), the remaining activity at 3.75 µM was found to be 96.3%. Further, the remaining activity at 1.25 µM in experiment [2] (Well no.=2189) came to 98.1%.

`CCCN1CCC[C@@H]2Cc3nc(N)ncc3C[C@H]21` [Quinelorane dihydrochloride]: the remaining activity at 3.75 µM in experiment [1] (Well no.=1413) came out at 98.2%. The remaining activity at 1.25 µM in experiment [2] (Well no.=1413) worked out at 95.1%.

With `C=C[C@H]1CN2CC[C@H]1C[C@@H]2[C@@H](O)c1ccnc2ccc(OC)cc12` [Quinidine sulfate], the remaining activity at 3.75 µM in experiment [1] (Well no.=1363) was 105%. In addition, the remaining activity at 1.25 µM in experiment [2] (Well no.=1363) is 101%.

Take `C=C[C@H]1CN2CC[C@H]1C[C@H]2[C@H](O)c1ccnc2ccc(OC)cc12` [Quinine sulfate]: the remaining activity at 3.75 µM in experiment [1] (Well no.=1459) is 100%. The remaining activity at 1.25 µM in experiment [2] (Well no.=1459) came out at 98.4%.

With `O=C(O)c1cccnc1C(=O)O` [Quinolinic acid], the figures for the remaining activity at 3.75 µM in experiment [1] (Well no.=1267) and in experiment [1] (Well no.=7265) were 109% and 94.7%, respectively. Moreover, the results for the remaining activity at 1.25 µM in experiment [2] (Well no.=1267) and in experiment [2] (Well no.=7265) were 105% and 96.1%, respectively.

As for `c1ccc2nc(N3CCNCC3)ccc2c1` [Quipazine dimaleate], the remaining activity at 3.75 µM in experiment [1] (Well no.=1411) came out at 101%. Besides, in experiment [2] (Well no.=1411), the remaining activity at 1.25 µM is 99.5%.
